Consider 3 compounds from PMC5651845, “A New Generation of Arachidonic Acid Analogues as Potential Neurological Agent Targeting Cytosolic Phospholipase A2” (Scientific Reports, 2017).

Each structure is given as a SMILES string.

Series [1] deals with T1, sPLA2, human recombinant type V (Homo sapiens, UniProt P39877).
T1 construct: purchased Cayman Chemical 10009563
T1 sequence (P39877 21-138): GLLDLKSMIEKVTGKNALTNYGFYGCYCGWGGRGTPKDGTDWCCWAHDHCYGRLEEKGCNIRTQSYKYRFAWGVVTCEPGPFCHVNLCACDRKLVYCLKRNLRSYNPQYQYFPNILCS
Kind of series: EnzChek phospholipase A2 fluorogenic assay (selectivity) with sPLA2. It counts as biochemical. To be noted: 10 μM. The method, then:
To further explore their selectivity towards cPLA2, 10 μM of 2g and 2i were evaluated for their inhibition against recombinant sPLA2 using the fluorogenic PLA2 assay (Fig. 3C).
The assay was conducted as described above. Instead of adding cPLA2, it was replaced by sPLA2. 48 μL of 1X phospholipase A2 reaction buffer was added into each well of a 96-wells plate. This was followed by addition of 1 μL of sPLA2, human recombinant type V (10009563, Cayman Chemical) and 1 μL of 1 mM of the respective compound or thioetheramide-PC (62750, Cayman Chemical) dissolved in DMSO. The final concentration of the test compound achieved is 10 μM. The reaction was initiated by adding 50 μL of the substrate solution and incubating at room temperature for 1 h. Fluorescence was measured using a Varioskan plate reader by exciting at 485 nm, while fluorescence emission was detected at 515 nm. Positive control was performed when 1 μL of test compound was replaced by vehicle DMSO. % activity was expressed as the mean value of duplicate wells from four experiments. % activity was calculated by the following formula:2 %activity=fluorescenceoftestedwell−background/fluorescenceofpostivecontrol−background

Series [2] addresses T1, sPLA2, human recombinant type V. Also noted: method as in PMID 2303420. The conditions noted are these: cited from earlier work.
In series [3] the target is T2, recombinant cPLA2 (Homo sapiens, UniProt P47712).
T2 construct: purchased US Biological P4074-03R
T2 sequence (P47712 1-749): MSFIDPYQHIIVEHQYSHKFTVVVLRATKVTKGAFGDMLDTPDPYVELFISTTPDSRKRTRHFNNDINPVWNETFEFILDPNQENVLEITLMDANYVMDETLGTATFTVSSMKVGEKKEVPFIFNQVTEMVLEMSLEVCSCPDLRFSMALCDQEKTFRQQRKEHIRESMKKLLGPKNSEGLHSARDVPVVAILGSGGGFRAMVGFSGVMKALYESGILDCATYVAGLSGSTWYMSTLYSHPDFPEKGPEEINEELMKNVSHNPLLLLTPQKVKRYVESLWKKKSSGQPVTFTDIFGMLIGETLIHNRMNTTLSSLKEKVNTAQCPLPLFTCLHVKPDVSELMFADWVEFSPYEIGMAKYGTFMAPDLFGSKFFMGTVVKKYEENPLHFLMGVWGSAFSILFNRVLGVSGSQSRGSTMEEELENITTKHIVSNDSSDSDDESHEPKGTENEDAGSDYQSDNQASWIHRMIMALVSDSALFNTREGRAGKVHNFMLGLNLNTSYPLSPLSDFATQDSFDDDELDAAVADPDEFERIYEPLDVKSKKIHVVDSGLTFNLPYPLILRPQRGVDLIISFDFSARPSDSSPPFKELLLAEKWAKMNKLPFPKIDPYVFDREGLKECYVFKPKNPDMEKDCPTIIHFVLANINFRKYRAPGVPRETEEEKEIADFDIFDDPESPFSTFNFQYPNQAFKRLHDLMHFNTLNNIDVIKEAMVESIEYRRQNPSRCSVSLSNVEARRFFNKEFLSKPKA
Kind of series: EnzChek phospholipase A2 fluorogenic assay (% activity) at 10 μM. The conditions noted are these: 10 μM compound; for remaining activity at 10 µM: 1 h, room temperature. It counts as biochemical. The method, then: The compounds were evaluated with a fluorogenic PLA2 assay kit (EnzChek® Phospholipase A2 Assay Kit, Catalog No: E10217) at a standard 10 μM concentration. Potential inhibitors were determined by their ability to lower cPLA2 activity to a greater extent than 1a.
The assay was conducted according to the manufacturer’s instruction (E10217, Molecular Probes) with slight modification. Briefly, substrate solution was separately prepared by mixing 5 μL of DOPG, 5 μL of DOPC and 5 μL of substrate respectively in 1.5 mL of 1X phospholipase A2 reaction buffer. The mixture was vortexed vigorously for 3 min before allowing to stand at room temperature for 1 h. 48 μL of 1X phospholipase A2 reaction buffer were added into each well of a 96-wells plate. This was followed by addition of 1 μL of recombinant cPLA2 (P4074-03R, US Biological) and 1 μL of 1 mM of the respective compound dissolved in DMSO. The final concentration of the test compound achieved is 10 μM. The reaction was initiated by adding 50 μL of the substrate solution and incubating at room temperature for 1 h. Fluorescence was measured using a Varioskan plate reader (Thermo Scientific, MA, USA) by exciting at 485 nm, while fluorescence emission was detected at 515 nm. Positive control was performed when 1 μL of test compound was replaced by vehicle DMSO. % activity was expressed as the mean value of duplicate wells from three experiments. % activity was calculated by the following formula1 %activity=fluorescenceoftestedwell−background/fluorescenceofpostivecontrol−background

Series [4] concerns the target T2, recombinant cPLA2. Kind of series: EnzChek phospholipase A2 fluorogenic assay (IC50). Type of series: biochemical. The procedure:
The assay was conducted as described above. Instead of adding a fixed concentration of the test compound, various concentrations of compound were reconstituted in DMSO. 48 μL of 1X phospholipase A2 reaction buffer were added into each well of a 96-wells plate. This was followed by addition of 1 μL of recombinant cPLA2 (P4074-03R, US Biological) and 1 μL of the respective concentration of the test compound dissolved in DMSO. The reaction was initiated by adding 50 μL of the substrate solution and incubating at room temperature for 1 h. Fluorescence was measured using a Varioskan plate reader by exciting at 485 nm, while fluorescence emission was detected at 515 nm. Positive control was performed when 1 μL of test compound was replaced by vehicle DMSO. IC50 was expressed as the mean value of duplicate wells from three experiments.

The next series concerns HEK293T cells. Kind of series: MTS cell proliferation assay on HEK293T cells. The conditions noted are these: 10 μM, 48 h and 72 h, vs vehicle control. Type of series: cell-based, human. The method, then:
(§1) To explore whether the inhibitors are cytotoxic, MTS assay were conducted on BV-2 cells, a murine microglial cell line derived from post-natal mouse cerebella, and HEK293T cells that are derived from human embryonic kidney. Both cell types were treated with 10 μM of 1a, 2g and 2i for 48 h and 72 h (Fig. 3A,B). Dimethyl sulfoxide (DMSO) vehicle control was also included as the compounds were dissolved in DMSO.
(§2) Cells were plated on a 96-wells plate and grown for 24 h to a density of 8000 cells per well for both HEK293T and BV-2 cells. Cells were cultured at 37 °C under a 5% CO2 environment in 100 μL of culture medium. Thereafter, the compound of interest dissolved in culture medium at a concentration of 10 μM was replaced into each well. DMSO was added as vehicle in the control group. 3 biological replicates were performed. The plates were then incubated at 37 °C with 5% CO2 for 48 h and 72 h. At each individual time point, 20 μL of CellTiter 96® AQueous One Solution (MTS reagent) was added into each well and re-incubated at 37 °C with 5% CO2 without light for 3 h. Colorimetric readings were taken using a Varioskan plate reader at 490 nm and analyzed. Three independent biological repeats with four technical replicates were performed.
In general terms: Tetrazolium assays rely on reduction of a dye to a coloured formazan, in cell work by metabolically active cells.

In another series the test system is BV-2 cells. Kind of series: MTS cell proliferation assay on BV-2 cells. Type of series: cell-based, murine. To be noted: 10 μM, 48 h and 72 h, vs vehicle control. The method, then:
as §1, §2

As usually defined, the IC50 is the concentration needed to halve the response being measured. Broadly, the inhibition is how much of the control response was suppressed. The remaining activity is the activity still measured, relative to the control.

As for `CCCCCCCCCCCCCCCCSC[C@H](COP(=O)(O)OCC[N+](C)(C)C)NC(=O)CCCCCCCCCCCCCCC` [Thioetheramide-PC, reference compound], the “reduction of sPLA2 activity” value in series [1] stood at 62%. Also, the 50% inhibitory concentration (IC50) in series [2] was 2 µM.

Regarding `CCCCC/C=C\C/C=C\C/C=C\C/C=C\CCCCC(=O)NCCCCC(=O)O` [2g], the sPLA2 activity in series [1] (relative to DMSO control) turned out to be 184%. Also, on recombinant cPLA2 [3], the inhibition at 10 µM came out at 84.5% and the remaining activity at 10 µM is 15.5 ± 0.3%. At recombinant cPLA2 [4], the IC50 was 5.3 ± 0.3 µM. The “fold stronger cPLA2 inhibition than 1a (from IC50)” value at recombinant cPLA2 [4] (relative to 1a) amounted to 3 fold. Also, the “cytotoxicity (MTS) on HEK293T cells” value with HEK293T cells is listed as “no significant toxic effects”. Also, in the series with BV-2 cells, the “cytotoxicity (MTS) on BV-2 cells” value is reported as “no significant toxic effects”.

As for `CCCCC/C=C\C/C=C\C/C=C\C/C=C\CCCC(=O)C(F)(F)F` [1a, arachidonyl trifluoromethyl ketone, reference compound], on recombinant cPLA2 [3], the inhibition at 10 µM was found to be 60% and the remaining activity at 10 µM came out at 40 ± 0.9%. Further, at recombinant cPLA2 [4], the IC50 was 16.5 ± 3 µM. Further, the “cytotoxicity (MTS) on HEK293T cells” value in the series with HEK293T cells was “no statistical differences in cell survival”. Besides, the “cytotoxicity (MTS) on BV-2 cells” value in the series on BV-2 cells is “no statistical differences in cell survival”.
